Measured values from PMC10933438, “Inhibition of urease-mediated ammonia production by 2-octynohydroxamic acid in hepatic encephalopathy” (Nature Communications, 2024).

Legend:
Jack bean urease [1] = target: T1, Jack bean urease (Canavalia ensiformis, UniProt P07374); experiment: cell-free pH-based (phenol red) urease activity assay; delay of half-maximal absorbance at […] inhibitor (ΔT50); assay type: biochemical
Jack bean urease [2] = target: T1, Jack bean urease; experiment: cell-free pH-based (phenol red) urease activity assay; ΔT50 at […] inhibitor; assay type: biochemical

T1 sequence (P07374 whole entry, looked up): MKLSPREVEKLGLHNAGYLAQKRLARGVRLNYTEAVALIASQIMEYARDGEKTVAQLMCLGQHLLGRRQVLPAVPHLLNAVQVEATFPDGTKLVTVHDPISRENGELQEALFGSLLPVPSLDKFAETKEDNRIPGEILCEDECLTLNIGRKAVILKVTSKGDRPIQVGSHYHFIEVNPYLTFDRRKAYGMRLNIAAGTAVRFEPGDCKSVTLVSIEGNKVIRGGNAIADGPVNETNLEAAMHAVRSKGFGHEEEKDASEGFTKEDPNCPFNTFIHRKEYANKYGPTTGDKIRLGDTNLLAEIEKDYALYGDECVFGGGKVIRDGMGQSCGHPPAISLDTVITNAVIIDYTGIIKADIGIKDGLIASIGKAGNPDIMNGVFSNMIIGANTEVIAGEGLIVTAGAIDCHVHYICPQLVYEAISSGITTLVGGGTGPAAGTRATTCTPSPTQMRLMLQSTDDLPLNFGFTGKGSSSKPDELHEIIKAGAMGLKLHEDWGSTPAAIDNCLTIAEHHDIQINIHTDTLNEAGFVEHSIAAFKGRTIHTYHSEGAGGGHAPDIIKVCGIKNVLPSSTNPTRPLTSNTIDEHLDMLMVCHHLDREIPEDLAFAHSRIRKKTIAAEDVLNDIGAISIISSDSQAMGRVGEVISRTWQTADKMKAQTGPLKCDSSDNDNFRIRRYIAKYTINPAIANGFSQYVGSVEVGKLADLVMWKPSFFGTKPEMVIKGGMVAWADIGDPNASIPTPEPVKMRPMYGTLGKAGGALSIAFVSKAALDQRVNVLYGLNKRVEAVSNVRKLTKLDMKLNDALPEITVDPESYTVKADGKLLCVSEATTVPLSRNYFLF

Compound	cell-free pH-based (phenol red) urease activity assay; delay of half-maximal abs (Jack bean urease [1])	cell-free pH-based (phenol red) urease activity assay; ΔT50 at 0.1 mM inhibitor (Jack bean urease [2])
CCCCCC#CC(=O)NO [2-octynoHA, 2-octynohydroxamic acid]	47.9 ± 2.6 min	
CC(=O)NO [AHA, acetohydroxamic acid]		2.8 ± 0.6 min
CCCCCCCC(=O)NO [OHA, octanohydroxamic acid]		3.0 ± 1.6 min
